Test results taken from patent US8133851B2, “Heteroaroyl-substituted serine amides” (BASF SE, priority 2007, dated 2012).

## CNC(=O)C(NC(=O)c1cn(C)nc1C(F)(F)F)C1(OC(=O)N(C)C)CCC1 (stereo not shown) [Example 1, Dimethylcarbamic acid 1-{methylcarbamoyl-[(1-methyl-3-trifluoromethyl-1H-pyrazole-4-carbonyl)amino]methyl}cyclobutyl ester]
  melting point: 190 °C
